Results reported in patent publication US20190183896A1, “ONE STEP MILLING PROCESS FOR PREPARING MICRONIZED PALIPERIDONE ESTERS” (SpecGX LLC, priority 2017, published 2019).

Assay: Particle size measurement of milled suspension (MALVERN MASTERSIZER 3000, in deionized water)
Format: physicochemical
Conditions: mean; suspension of Example 1 milled 20 minutes with 700 micron polystyrene grinding media (Example 2); measured in deionized water
Protocol: The suspension from Example 1 (6-35 w/v %) was milled in a NETZSCH MINICER bead mill using 700 micron polystyrene grinding media (40-85% media load). The mixture was milled at a speed of 3.1-5.5 m/s at 15-25° C. for 20 minutes.
Following milling, particle size was measured, in deionized water, using a MALVERN MASTERSIZER 3000 particle size analyzer. The mean milled paliperidone palmitate particle size distribution of the suspension was D90 less than 20 micron, D50 less than 10 micron, and a D10 less than 3 micron (FIG. 1).

Structure (SMILES): CCCCCCCCCCCCCCCC(=O)OC1CCCn2c1nc(C)c(CCN1CCC(c3noc4cc(F)ccc34)CC1)c2=O (stereo not drawn) [paliperidone palmitate, 3-(2-(4-(6-fluoro-3a,7a-dihydrobenzo[d]isoxazol-3-yl)piperidin-1-yl)ethyl)-2-methyl-4-oxo-6,7,8,9-tetrahydro-4H-pyrido[1,2-a]pyrimidin-9-yl palmitate]
- particle size distribution D10: less than 3 micron
- particle size distribution D50: less than 10 micron
- particle size distribution D90: less than 20 micron
